Experimental data as given in patent US20220229065A1, “SENSORS AND METHODS FOR RAPID MICROBIAL DETECTION” (BAMBU VAULT LLC, priority 2019, published 2022).
Blank lines part the entries; values can stand above or below the molecule they belong to.

Tests used:
[1] = Additives that stabilize the dye within the particles; format: physicochemical; settings: antioxidant additive in polymer matrix
Source text: The loading of dyes within the particles is as high as possible without degrading the cohesion of the polymer. The additives that stabilize the dye within the particles have been studied.

[2] = Retention of Epolight 1117 tetrakis aminium dye in particles during emulsification and evaporation; format: physicochemical; settings: retention in the particles during emulsion and evaporation process; surfactant as labelled
Source text: In the emulsion method of encapsulation, a surfactant is necessary to help keep the emulsion stable. While Aerosol® TR-70 (sodium bis(tridecyl) sulfosuccinate) could be used as an emulsifier to prepare polymer particles encapsulating Epolight™ 1117 tetrakis aminium dye, TR-70 only provided limited stabilization effects on the tetrakis aminium dye. […] Reducing the amount of SDS in the aqueous phase led to lower Epolight™ 1117 retention and larger particle size (Table 2).

papain = target: T1, papain (Carica papaya, UniProt P00784); assay: Reaction of Formula (12) conjugate with papain (color change, selectivity control); format: biochemical; settings: 1.0 mg in 0.3 mL DMSO + 25 μL papain
T1 sequence (P00784 134-345): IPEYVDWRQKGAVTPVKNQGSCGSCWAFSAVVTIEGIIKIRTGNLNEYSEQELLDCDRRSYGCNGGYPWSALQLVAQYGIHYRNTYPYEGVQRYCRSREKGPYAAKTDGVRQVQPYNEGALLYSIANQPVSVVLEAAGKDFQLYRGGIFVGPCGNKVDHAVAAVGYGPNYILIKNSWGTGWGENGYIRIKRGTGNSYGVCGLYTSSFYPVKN
Protocol: (§1) In four different vials, compound 4 (1.0 mg in each vial) was dissolved in DMSO (0.3 mL). To one vial, 25 μL of β-lactamase blend was added. To another vial 25 μL PBS was added as the negative control. To the other two vials 25 μL of papain and chymotrypsin were added separately.

chymotrypsin = assay: Reaction of Formula (12) conjugate with chymotrypsin (color change, selectivity control); format: biochemical; settings: 1.0 mg in 0.3 mL DMSO + 25 μL chymotrypsin
Protocol: as §1

β-lactamase blend = assay: Reaction of Formula (12) conjugate with β-lactamase (color change in vial); format: biochemical
Protocol: as §1

[3] = 1.0 mg in 0.3 mL DMSO + 25 μL β-lactamase blend

impact on dye stability within the particles [1]: positive impact
SMILES: Cc1cc(C(C)(C)C)c(O)c(C)c1Cn1c(=O)n(Cc2c(C)cc(C(C)(C)C)c(O)c2C)c(=O)n(Cc2c(C)cc(C(C)(C)C)c(O)c2C)c1=O [Cyanox® 1790, 1,3,5-tris(4-tert-butyl-3-hydroxy-2,6-dimethylbenzyl)-1,3,5-triazine-2,4,6-(1H,3H,5H)-trione]

% Epolight ™ 1117 Retention [2]: 85-90%
SMILES: CCCCCCCCCCCCOS(=O)(=O)[O-].[Na+] [Sodium dodecyl sulfate, sodium dodecyl sulfate]

% Epolight ™ 1117 Retention [2]: 50%
SMILES: CCCCCCCCCCCCCOC(=O)CC(C(=O)OCCCCCCCCCCCCC)S(=O)(=O)O.[Na] (centres unmarked) [TR-70, sodium bis(tridecyl) sulfosuccinate]

color change after papain addition (papain): slightly changed color to light brown
color change with PBS (negative control, no enzyme) (β-lactamase blend; 1.0 mg in 0.3 mL DMSO + 25 μL PBS): did not change color at all
time to very strong color change after β-lactamase addition (β-lactamase blend; [3]): less than 5 minutes
SMILES: COc1ccc(COC(=O)C2=C(CSc3ccc4c(c3)Oc3cc(SCC5=C(C(=O)OCc6ccc(OC)cc6)N6C(=O)[C@H](NC(=O)Cc7ccccc7)[C@@H]6SC5)ccc3C43OC(=O)c4ccccc43)CS[C@H]3[C@@H](NC(=O)Cc4ccccc4)C(=O)N23)cc1 [compound 4]
color change after chymotrypsin addition (chymotrypsin): almost no color change even after 30 minutes
color change after β-lactamase addition (onset) (β-lactamase blend; [3]): started changing color from light yellow to brownish-red within a minute
